Experimental data from patent publication US20050234100A1, “Insulin resistance as new action of loperamide” (Yu Sheng Pharmaceutical Co., Ltd., priority 2004, published 2005).

Columns and labels:
[1] = system: TNF-α induced insulin resistant C2C12 myoblasts; assay: insulin-stimulated glucose uptake in TNF-α induced insulin resistant C2C12 myoblasts; type: cell-based, mouse; conditions: for glucose uptake stimulated by insulin in TNF-α treated C2C12 myoblasts, antagonist alone: without loperamide
Experimental: (§1) The C2C12 cells, obtained from Culture Collection and Research Center (CCRC 60083) of the Food Industry Institute (Hsin-Chiu City, Taiwan) were plated at 5×10^4 cells/dish in 35-mm diameter culture dishes in Dulbecco's modified Eagle's medium (DMEM) (GIBCO BRL, Gaithersburg, Md.) supplemented with 10% fetal bovine serum (FBS) (GIBCO BRL) and 1% antibiotic solution (penicillin 10,000 U/ml, streptomycin 10 mg/ml, amphotericin B 25 μg/ml) and were grown to 80% confluence at 37° C. in humidified atmosphere containing 5% CO2. Myoblast differentiation was induced with DMEM supplemented with 5% horse serum, L-glutamine, and penicillin/streptomycin for 72 h. Differentiated myotubes were starved for 5 h in serum-free DMEM before treatment as described previously (Sheriff et al., 1992).
Cultured C2C12 myoblasts (5×10^6) were incubated with loperamide at desired concentration or the same volume of vehicle in a cultivation condition oxygenated with a mixture of 95% O2 and 5% CO2 at 37° C. temperature for 3 days. Then, tumor necrosis factor-α (TNF-α) at concentration of 10 ng/ml was added. One hour later, cells were flushed down with 0.05% trypsin and put under centrifugal force at 13,000 rpm for 5 minutes, and clear liquid on top was then thrown away. Insulin ([…]) was used to simulate glucose uptake into cells using 2-[1-^14C]-Deoxy-D-Glucose (2-DG) (the final concentration of isotope was 0.25 μCi/ml) as indicator for 5-min incubation. The reaction was terminated in ice-bath. Then, C2C12 myoblasts were washed with buffer liquid three times. Finally, cells were lysed with 1 M NaOH and put into scintillation vial. The 2-DG specific uptake of cells was measured as indicated above.
The effect of loeramide on insulin resistance was further investigated in C2C12 myoblasts using TNF-α induced insulin resistance as described previously (Ruan et al., 2002; Mikael et al., 2002). Incubation with loperamide for 3 days at desired concentration, C2C12 myoblasts were treated with TNF-α (10 ng/ml) for one hour. Then, insulin was used to stimulate glucose uptake using 2-DG as indicator following the above method.

[2] = system: Zucker-diabetic fatty rats; assay: glucose challenge test in Zucker-diabetic fatty rats; type: in vivo; conditions: loperamide 2, 6, 18 μg/kg
Experimental: (§2) Animals were food-restricted and given only water to drink for overnight before the experiment. On the morning of examination, the basal blood sample (0.1 ml) drawn from the tail veins of these rats were regarded as 0 min samples. Then, each animal was immediately received an intraperitoneal injection of glucose at 1 g/kg body wt to induce the glucose tolerance test (IGTT). Blood samples from the tail vein were drawn at 5, 10, 20, 30, 60, 90, 120 min after the glucose feeding for measurement of plasma levels of glucose and insulin. Immediately after the completion of the IGTT, all animals received 2 ml of sterile saline subcutaneously to compensate for plasma loss. The obtained whole blood was thoroughly mixed with 10 IU heparin and centrifuged at 13,000×g to separate the plasma. Concentration of plasma glucose was measured by the glucose oxidase method via an analyzer (Quik-Lab, Ames, Miles Inc., Elkhart, Ind., USA) with samples run in duplicate. Enzyme-linked immunosorbent assay was carried out to measure plasma insulin using the commercial kit (Penisula Lab. Inc., Belmont, Calif., USA). Glucose-insulin index was calculated as the product of the glucose and insulin areas under the curve (AUC) as described previously (Kara et al., 2000). In order to evaluate whether loperamide could improve insulin resistance, four different doses of loperamide (2 ? 6 ? 12 ? 18 μg/kg) were injected into abdomen of each animal 30 minutes before the injection of glucose.
(§3) The blood sample was centrifuged to obtain plasma. Then, 10 μl of plasma was mixed with 1.0 ml of Glucose Kit Reagent (Biosystems S.A., Barcelona, Spain) at 37° C. for 10 minutes. The glucose concentration was measured in duplicate using Quik-lab analyzer (Ames, Miles Inc., Elkhart, Ind., USA) and expressed to the value of mg/dl. Results of plasma glucose lowering activity were calculated as percentage decrease of the initial value according to the formula: (Gi−Gt)/Gi×100% where Gi was the initial glucose concentration and Gt was the plasma glucose concentration after treatment of loperamide or same volume of vehicle.
(§4) Enzyme-linked immunosorbent assay (ELISA) was carried out to measure plasma insulin using the commercial kit (Penisula Lab. Inc., Belmont, Calif., USA). The measurement principle utilized the polyclonal antibodies in rabbit to directly identify the carboxyl-terminal of human insulin. Biotinylated peptide would compete with test subject the integration position with antibodies. After washing away the biotinylated peptides that was not integrated with antibodies, streptavidin-conjugated Horseradish Peroxidase (SA-HRP) was used to react with immobilized primary antibody/biotinylated peptide complex. Then, TMB (3,3′,5,5′-Tetramethyl Benzidine Dihydrochloride) is added to react with HRP and then yellow color was shown. The lightness or darkness of color was determined by the amount of biotinylated peptide integrated with antibodies. […] The standard curve was ploted according to the amounts of light absorption of standard subjects at 450 nm. Then through log/logit, the insulin concentration was calculated using MicroReader™ 4 Plus.
In order to know similar action of loperamide is also effective in genetic animal, the present study employed the Zucker-diabetic fatty rats to investigate IGTT in addition. Also, control group was treated with the same volume of vehicle (saline). The only difference is that glucose (0.5 g/kg) was given by intravenous injection at 30 minutes later of treatment.

[3] = system: fructose-rich chow-fed Wistar rats (insulin resistance); assay: intraperitoneal glucose tolerance test (IGTT) in fructose-induced insulin resistant rats; type: in vivo
Experimental: as §2
After 2 weeks on standard chow (Purina Mills, Inc.), half of the Wistar rats were randomly assigned to receive the fructose-rich chow (Teklad, Madison, Wis.) containing 60% fructose for 4 additional weeks to induce insulin resistance that was confirmed by the loss of tolbutamide action. The other rats still received standard chow during the 4-week period.
as §3, §4
Using glucose-insulin index (Kara et al., 2000) as indicator, effect of loperamide on insulin resistance was investigated in fructose-fed rats. The control group was treated with the same volume of saline, while test groups were injected loperamide at four doses (2 ? 6 ? 12 ? 18 μg/kg) into abdomens. […]

[4] = system: C2C12 myoblasts; assay: 2-DG glucose uptake in C2C12 myoblasts; type: cell-based, mouse
Experimental: as §1
Glucose uptake was determined using 2-[^14C]-deoxy-D-glucose (2-DG) (New England Nuclear, Boston, Mass.). After 5 h of serum starvation, cells were incubated with or without pharmacological inhibitors at indicated concentrations for 30 min at 37° C. Then, the cells were incubated with loperamide at indicated concentrations at 37° C. for another 30 min under continuous shaking at 40 cycles/min. The cells were further incubated with 2-DG (1 μCi/ml) for 5 min at 37° C. Uptake was terminated by aspiration of the solution. Cells were then washed three times, and radioactivity associated with the cells was determined by cell lysis in 1 M NaOH, and the aliquots were neutralized to be estimated in scintillation counter. 2-DG uptake was expressed as the percentage of the basal 2-DG uptake that was taken as 100% from samples incubated with DMEM only. Nonspecific uptake was obtained by parallel determinations in the presence of 20 μmol/l cytochalasin B (Sigma, St. Louis, Mo., USA).

[5] = system: STZ-induced type-I diabetic rats; conditions: intravenous injection; cited from earlier work
[6] = TNF-α treated C2C12 myoblasts, antagonist dose dependence

CN(C)C(=O)C(CCN1CCC(O)(c2ccc(Cl)cc2)CC1)(c1ccccc1)c1ccccc1 [loperamide]
glucose uptake in TNF-α induced insulin resistant C2C12 myoblasts ([1]; loperamide 10 μM (maximal concentration)): reversed the glucose uptake in TNF-α induced insulin resistant C2C12 myoblasts to the level near normal control | glucose uptake stimulated by insulin in TNF-α treated C2C12 myoblasts ([1]; loperamide incubation 3 days, TNF-α 10 ng/ml 1 hour, dose dependence): reversed the glucose uptake stimulated by insulin in TNF-α treated C2C12 myoblasts in a dose-dependent manner | AUC of plasma glucose [2]: inhibited by loperamide but at a higher dosing | glucose-insulin index [2]: dose-dependently decreased | total area (AUC) of plasma insulin [2]: reduced by loperamide in a dose-dependent manner | plasma insulin after glucose challenge ([2]; 5 min after glucose injection): reduction of plasma insulin by loperamide was obtained in a dose-dependent fashion | plasma glucose after glucose challenge ([2]; 35 min after treatment (5 min after 0.5 g/kg glucose i.v.)): lowering of plasma glucose | raise of plasma glucose during IGTT ([3]; fructose-fed rats, loperamide 2, 6, 12, 18 μg/kg into abdomen, 60 minutes after injection (30 minutes after 1 g/kg glucose i.p.), vs control group): reduce the raise of plasma glucose significantly | plasma insulin levels and incremental area under the insulin curve during IGTT ([3]; fructose-fed rats, loperamide 2-18 μg/kg into abdomen): lowered | total AUC for the glucose response during IGTT ([3]; fructose-fed rats, loperamide 2-18 μg/kg into abdomen, vs vehicle-treated control): markedly lower than that from vehicle-treated control | glucose-insulin index during IGTT ([3]; fructose-rich chow-fed rats, loperamide 2-18 μg/kg into abdomen, index = product of glucose and insulin AUC): reduced the value of glucose-insulin index | incubation time to maximal plateau of 2-DG uptake ([4]; C2C12 myoblasts about 10^6 cells, 37° C.): about 25 min | 2-DG uptake, concentration dependence ([4]; loperamide 10 nM to 10 μM, 30 min incubation): increase of 2-DG uptake in a concentration-dependent manner | glucose uptake relative to control ([4]; loperamide 10 μM (maximal concentration), N=8): about 1.3 times of the control | 2-DG uptake ([4]; loperamide 10 μM, no antagonist, 8 experiments): 204.3±4.7 pmol/mg protein/5 min | plasma glucose [5]: produced plasma glucose lowering effect

C=CCN1CC[C@]23c4c5ccc(O)c4O[C@H]2/C(=N/N=C2\CC[C@@]4(O)[C@H]6Cc7ccc(O)c8c7[C@@]4(CCN6CC=C)[C@H]2O8)CC[C@@]3(O)[C@H]1C5 [naloxonazine]
effect of antagonist on action of loperamide (10 μM) [1, 6]: inhibited the effect of loperamide in a dose-dependent manner | effect of antagonist on action of loperamide (10 μM) ([1]; antagonist at 1 μM): eliminated the action of loperamide | glucose uptake stimulated by insulin in TNF-α treated C2C12 myoblasts, antagonist alone ([1]; antagonist at 1 μM): did not modify the glucose uptake

C=CCN1CC[C@]23c4c5ccc(O)c4O[C@H]2C(=O)CC[C@@]3(O)[C@H]1C5 [naloxone]
effect of antagonist on action of loperamide (10 μM) [1, 6]: inhibited the effect of loperamide in a dose-dependent manner | effect of antagonist on action of loperamide (10 μM) ([1]; antagonist at 1 μM): eliminated the action of loperamide | glucose uptake stimulated by insulin in TNF-α treated C2C12 myoblasts, antagonist alone ([1]; antagonist at 1 μM): did not modify the glucose uptake | action of loperamide to lower glucose-insulin index in the presence of naloxone ([3]; naloxone 1 mg/kg 1 hour before loperamide 18 μg/kg, fructose-rich chow-fed rats): reversed to that near to the value in fructose-rich chow-fed rats received vehicle treatment | glucose-insulin index, naloxone alone ([3]; naloxone 1 mg/kg, fructose-rich chow-fed rats): did not modify the value of glucose-insulin index directly | loperamide (10 μM)-induced 2-DG uptake in the presence of antagonist ([4]; naloxone 0.1 μM, 8 experiments): 183.2±4.1 pmol/mg protein/5 min | loperamide (10 μM)-induced 2-DG uptake in the presence of antagonist ([4]; naloxone 1 μM, 8 experiments): 169.9±5.0 pmol/mg protein/5 min
